Assays:
[1] = test system: ApoE-/-+HCD 생쥐 대동맥 절편; assay: Vascular tension measurement of aortic segments of atherosclerosis model mice after i.v. peptide; type: in vivo, mouse
[2] = target: T1, p32 단백질 (Homo sapiens, UniProt Q07021); assay: Mitochondrial fractionation and immunoblotting of p32 in HUVECs; type: cell-based; details: peptide 10 μM, 12 h, mitochondrial fraction
T1 construct: 펩타이드를 처리한 HUVECs을 1X SDS sample buffer로 lysis한 뒤; endogenous in cells; host or cells: HUVECs
T1 sequence (Q07021 74-282): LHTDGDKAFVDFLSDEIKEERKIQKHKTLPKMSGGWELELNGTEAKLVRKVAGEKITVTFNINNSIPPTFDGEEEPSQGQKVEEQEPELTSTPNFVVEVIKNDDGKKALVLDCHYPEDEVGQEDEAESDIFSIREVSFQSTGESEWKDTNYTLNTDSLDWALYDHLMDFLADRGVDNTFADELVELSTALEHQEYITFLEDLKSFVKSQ

[3] = test system: ApoE-/-+HCD 생쥐 대동맥; assay: NO measurement (DAF-FM fluorescence) in aorta of atherosclerosis model mice after i.v. peptide; type: in vivo, mouse; details: 0.25 mM/kg i.v. every second day, 5 injections in 10 days
[4] = target: T1, p32 단백질; assay: p32 protein level under proteasome inhibition (MG132) in HUVECs, Western blot; type: cell-based; details: peptide 10 μM, 12 h
[5] = test system: eNOS; assay: Western blot of eNOS phosphorylation (Ser1177, Thr495) in peptide-treated HUVECs; type: cell-based, human; details: peptide 10 μM, 12 h
[6] = target: T2, 알기나제와 p32 단백질의 결합 (Homo sapiens, UniProt Q07021); assay: Co-immunoprecipitation: binding of arginase and p32 in HUVECs; type: cell-based; details: peptide 10 μM, 12 h, co-IP with p32 antibody
T2 construct: YDIQY 펩타이드를 처리한 HUVECs을 RIPA buffer를 이용하여 lysis하고; endogenous in cells; host or cells: HUVECs
T2 sequence (Q07021 74-282): T1 sequence (Q07021 74-282)

[7] = test system: ApoE-/-+HCD 생쥐 대동맥; assay: ROS measurement (DHE fluorescence) in aorta of atherosclerosis model mice after i.v. peptide; type: in vivo, mouse; details: 0.25 mM/kg i.v. every second day, 5 injections in 10 days
[8] = target: T1, p32 단백질; assay: Western blot of p32 protein level in peptide-treated HUVECs; type: cell-based; details: 12 h
[9] = test system: CaMKII; assay: Western blot of CaMKII phosphorylation in peptide-treated HUVECs; type: cell-based, human; details: peptide 10 μM, 12 h
[10] = target: T1, p32 단백질; assay: Co-immunoprecipitation: ubiquitination of p32 in HUVECs; type: cell-based; details: peptide 10 μM, 12 h, co-IP with p32 antibody
[11] = Tail-cuff blood pressure measurement (CODA) in wild-type mice after i.v. peptide; type: in vivo, mouse; details: WT mice, 0.25 mM/kg i.v. once daily, 4day

- mitochondrial p32 protein level [2]: 유의하게 감소
- p32 protein level ([4]; with proteasome inhibitor MG132 10 μM, 24 h): 감소되지 않는
- p32 protein level ([4]; without MG132): 감소하였지만
- binding of p32 with arginase vs control [6]: 감소되어있는
- p32 protein level ([8]; peptide 10 μM, Western blot): 감소되었고
- cytoplasmic p32 protein level ([8]; peptide 0.01, 0.1, 1, 10 μM): 농도 의존적으로 감소
- p32 ubiquitination vs control [10]: 증가되어
Substance: YDIQY: penta-peptide of SEQ ID NO: 1 designed from the arginase/p32 binding site; p32 inhibiting activity (printed: Tyr Asp Ile Gln Tyr)
- Ach-dependent relaxation of aortic segments ([1]; ApoE-/-+HCD mice, 0.25 mM/kg i.v. x5, Ach 10-9~10^-5 M): 정상 생쥐 수준만큼 회복되는
- PE-dependent contraction of aortic segments ([1]; ApoE-/-+HCD mice, 0.25 mM/kg i.v. x5, PE 10-9~10^-5 M): 정상 생쥐 수준만큼 회복하는
- KCl contraction of aortic segments ([1]; four groups compared, KCl 60 mM, 20 min): 차이가 없음
- SNP-dependent (endothelium-independent) relaxation of aortic segments ([1]; four groups compared, SNP 10-10~10^-6 M): 차이가 없음
- NO production in aorta [3]: 정상 생쥐 수준만큼 회복
- eNOS Ser1177 (activating site) phosphorylation [5]: 증가되었으며
- eNOS Thr495 (inactivating site) phosphorylation [5]: 감소되는
- ROS production in aorta [7]: 정상 생쥐 수준만큼 회복
- CaMKII phosphorylation (activity) [9]: 증가하였고
- 수축기 (systolic pressure) [11]: 유의하게 감소
- 이완기 (diastolic pressure) [11]: 유의하게 감소
- 평균 대동맥압 (mean aortic pressure) [11]: 유의하게 감소
